Results reported in patent US20230236170A1, “REACTIVE AFFINITY PROBE-I[…] PLATFORM” (Jnana Therapeutics Inc., priority 2019, published 2023).

How the values were obtained:
[1] = molecular target: T1, creatine transporter SLC6A8 (Homo sapiens, UniProt P48029); assay: creatine uptake assay after photo-crosslinking of reactive affinity probe; type: cell-based; conditions: 100 μM JN-1724 with or without 1 mM β-GPA, 30 minutes, 6 minutes 365 nm; FIG. 3
T1 construct: host or cells: 'Cells', not specified
T1 sequence (P48029 1-635): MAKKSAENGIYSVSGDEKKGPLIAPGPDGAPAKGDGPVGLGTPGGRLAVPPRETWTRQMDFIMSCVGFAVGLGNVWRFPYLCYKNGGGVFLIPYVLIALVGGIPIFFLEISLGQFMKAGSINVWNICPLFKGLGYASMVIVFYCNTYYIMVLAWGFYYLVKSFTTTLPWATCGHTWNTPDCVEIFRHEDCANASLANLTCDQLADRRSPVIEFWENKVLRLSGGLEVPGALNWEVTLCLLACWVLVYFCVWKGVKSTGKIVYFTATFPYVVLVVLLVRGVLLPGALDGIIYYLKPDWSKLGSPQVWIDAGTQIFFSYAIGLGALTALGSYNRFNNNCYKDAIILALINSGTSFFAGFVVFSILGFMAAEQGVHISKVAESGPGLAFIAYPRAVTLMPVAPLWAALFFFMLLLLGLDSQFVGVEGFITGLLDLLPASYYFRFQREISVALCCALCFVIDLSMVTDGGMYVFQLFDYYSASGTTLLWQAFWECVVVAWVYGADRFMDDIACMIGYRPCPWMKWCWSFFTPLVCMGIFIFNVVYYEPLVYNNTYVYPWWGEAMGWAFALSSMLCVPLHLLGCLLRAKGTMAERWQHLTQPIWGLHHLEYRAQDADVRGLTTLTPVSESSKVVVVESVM
Experimental: Cells were dosed for 30 minutes with 100 μM JN-1724 with or without 1 mM β-GPA and then irradiated for 6 minutes with 365 nm light. Cells were washed and the residual transport activity of SLC6A8 was measured via a creatine uptake assay.
RAPID identifies orthosteric and allosteric ligands as starting points or probes for target occupancy. The extent of covalent modification of the creatine transporter by a subset of the RAP library is highly reproducible (FIG. 2A). Screen of 2000 RAPs against the creatine transporter SLC6A8±the substrate analog guanidinoproprionic acid (GPA) identifies substrate-sensitive binder (FIG. 2B). Dots that fall off-diagonal are either substrate-competitive or substrate-cooperative. Two RAPs identified from the screen show dose-dependent inhibition or enhancement of covalent modification of the target as a function of the concentration of GPA (FIG. 2C).
A 30 minute 100 μM dose of JN-1724 followed by 6 minutes of cross-linking at 365 nm is enough to inhibit SLC6A8 transport of creatine to 5.7% of normal transport. […] Cells were lysed; biotin was clicked on; and biotinylated proteins were affinity-purified with streptavidin, digested with trypsin, and identified by tandem mass spectrometry with TMT quantification. […]

SLC6A8 = molecular target: T2, SLC6A8 (Homo sapiens, UniProt P48029); assay: target engagement by mass spectrometry of the adductome (streptavidin enrichment, TMT quantification); type: binding; conditions: co-dosing 1 mM β-GPA with 20 μM JN-1724, 30 minutes, 6 minutes 365 nm
T2 construct: host or cells: 'Cells', not specified
T2 sequence (P48029 1-635): T1 sequence (P48029 1-635)
Experimental: Cells were dosed for 30 minutes with 20 μM JN-1724 with or without 1 mM β-GPA and then irradiated for 6 minutes with 365 nm light. Cells were lysed; biotin was clicked on; and biotinylated proteins were affinity-purified with streptavidin, digested with trypsin, and identified by tandem mass spectrometry with TMT quantification. SLC6A8 (dot pointed at with arrow) was one of the proteins identified and co-dosing with 1 mM β-GPA reduced the level of enrichment by 80%.
A 30 minute 100 μM dose of JN-1724 followed by 6 minutes of cross-linking at 365 nm is enough to inhibit SLC6A8 transport of creatine to 5.7% of normal transport. To confirm target engagement by unbiased mass spectrometry of the adductome, Cells were dosed for 30 minutes with 20 μM JN-1724 with or without 1 mM β-GPA and then irradiated for 6 minutes with 365 nm light. Cells were lysed; biotin was clicked on; and biotinylated proteins were affinity-purified with streptavidin, digested with trypsin, and identified by tandem mass spectrometry with TMT quantification. SLC6A8 (dot pointed at with arrow) was one of the proteins identified and co-dosing with 1 mM β-GPA reduced the level of enrichment by 80% (FIG. 4).

- effect on residual transport activity of SLC6A8 [1]: protection
- reduction of the level of enrichment of SLC6A8 (SLC6A8): 80%
Structure (SMILES): N=C(N)NCCC(=O)O [β-GPA, β-guanidinoproprionic acid]
